Data as given in article PMC12059926, “Development and Biological Assessment of Thiazole-Based Pyridines for Targeted Therapy in Lung Cancer” (ACS Omega, 2025).
≈ marks a conversion by molar mass, not a printed value.

Key:
A549 cells [1] = test: Annexin V-FITC/propidium iodide apoptosis detection by flow cytometry; format: cell-based, human; conditions: IC50 dose, 24 h
Procedure: To determine whether the antiproliferative effects of the compounds on the A549 cell line proceed through the apoptotic or necrotic pathway, the assay was performed with Annexin V-FITC/propidium iodide dyes in a flow cytometry device. […] At least 10,000 cells were analyzed, and quadrant analysis was performed. The results are presented as early apoptotic cells, late apoptotic cells, viable cells, and necrotic cells in Table 3, and as a diagram in Figure 1. In control cells, the number of viable cells was 92.04%, necrotic cells were 1.16%, early apoptotic cells were 3.43%, and late apoptotic cells were 3.28%. […] Among the compounds, 2m was the most apoptosis-inducing compound, with 14.99% early apoptotic and 10.63% late apoptotic cell percentages. […] This compound was followed by compound 2c with a 13.79% early apoptotic cells and 4.03% late apoptotic cells. Among the compounds, compound 2o induced early apoptosis the least (1.87%) and necrosis the most (3.10%). […] Nonapoptotic cell death methods, such as necroptosis and pyroptosis, can be considered for the aforementioned compounds.
The compounds were treated with A549 cells at IC50 doses, and early and late apoptosis, necrosis, and viable cell ratios were determined as percentages. Cells were seeded at 37 °C in humidified air containing 5% CO2 with 10^5 cells/plate in each well. A549 cells were collected, washed twice with ice-cold PBS, and resuspended in 100 μL of binding buffer. Five μL (5 μg/mL) of Annexin V-FITC and PI were added to the cells and incubated for 15 min in the dark at room temperature (20–25 °C). Then, 400 μL of binding buffer was added to the mixture samples and analyzed on a flow cytometer. Quadrant analyses were also presented.[41] Compounds 2a, 2b, 2c, 2j, 2m, and 2o, with a satisfactory cytotoxic profile, were examined via flow cytometry to assess the apoptosis/necrosis cell ratio using previously published procedures.[42]
(§1) The apoptotic results (Annexin V-FITC, Caspase 3, JC-1) were evaluated by flow cytometry using FACS Diva Version 6.1.1. software, and the apoptotic cells were determined as the percentage of cells.

A549 cells [2] = test: Mitochondrial membrane potential (JC-1) by flow cytometry; format: cell-based, human; conditions: for % Mitochondrial membrane depolarized cells / % Mitochondrial membrane polarized cells: IC50 dose, JC-1
Excerpt: The mitochondrial membrane potential provides information about the state of electrons during ATP production through oxidative phosphorylation, which is essential for cellular viability. Mitochondrial dysfunction occurs when this electrical regulation is disturbed and can occur in various diseases and the process of apoptosis.[23] […] Compounds 2m, 2g, and 2c followed this, with depolarization levels exceeding 21%. The mitochondrial dysfunction in compound 2m can be considered a contributing factor to apoptosis.
Cell staining with JC-1 was performed according to the manufacturer’s recommendations for the BD , Pharmingen Flow Cytometry Kit. […] Compounds were applied at IC50 doses of no more than 1 × 10^6/mL per well in 6-well plates. After treatment, each cell suspension was transferred to a 15 mL polystyrene centrifuge tube, the cells were centrifuged at 400g for 5 min, and the supernatant was removed. 0.5 mL of freshly prepared working solution was added to each pellet, and the solution was vortexed. The test cells were soaked in JC-1 working solution at 37 °C for 10–15 min, and the cells were washed twice. After centrifugation at 400g for 5 min, each cell pellet was suspended in 0.5 mL of 1X assay buffer and vortexed. The cells were then analyzed by flow cytometer.
as §1

caspase-3 in A549 cells = test: Caspase-3 activation; format: cell-based, human; conditions: 24 h
Excerpt: Caspases can take part in the cell death mechanism through both intrinsic and extrinsic pathways, with caspase-3 being the first enzyme activated in the apoptosis process.[24] Activation of the caspase-3 enzyme by the compounds, indicated as caspase-3 positive, and inhibition, indicated as caspase-3 negative, are presented in percentage terms in Table 5.
A Spectrofluorometric Caspase-3 assay kit (BD Pharmingen, Franklin Lakes, NJ) was used for determining Caspase-3 activation by measuring the caspase-3 or DEVD-cleaving activity. Initially, A549 cells at a concentration of 1 × 10^6 cells/mL underwent a washing process using phosphate-buffered saline (PBS). Subsequently, they were suspended in a cold solution known as cell lysis buffer and kept on ice for a duration of 30 min. […] In each reaction, a mixture of […] of diluted Ac DEVD-AMC (a synthetic tetrapeptide fluorogenic substrate used to measure caspase-3 activity) and 0.2 mL of 1x HEPES buffer was added to a well. Then, […] of cell lysate was introduced into each well/reaction. The reaction mixtures were incubated at 37 °C for 1 h. The amount of AMC released from Ac-DEVD-AMC was measured by using a microplate reader (PerkinElmer/Victor/X3) with an excitation wavelength of 380 nm and an emission wavelength of 460 nm. Apoptotic cell lysates containing active caspase-3 produced significant emissions compared to controls. In addition, the AMC emission of nonapoptotic control cell lysates was taken as 100%, and the emission of other cell lysates was measured relative to the emission of control cells. All experiments were repeated in duplicate. Active compounds, which are the most cytotoxic compounds, were evaluated for caspase-3 activation using previously published procedures.[40],[44]
as §1

[3] = test system: A549 lung cancer cell line; test: MTT cytotoxicity assay on A549 lung cancer cells; format: cell-based, human; conditions: for IC50: Homo sapiens; for SI: selectivity index: L929 versus A549
Procedure: (§2) The synthesized final compounds (2a–2o) were initially evaluated for their cytotoxic effects to assess their anticancer activity against A549 lung cancer cells. The healthy cell line L929 (mouse fibroblast cell line) was also used to determine the selective antiproliferative properties of the compounds.
(§3) The human lung cancer cell line A549 and mouse fibroblast cell line L929 were used to evaluate the cytotoxicity of the compounds. Cells propagated under the specified conditions were cultured in 96-well plates at 5 × 10^3 cells/well. […] At the end of the incubation period, cell viability was determined by measuring the absorbance of the purple color formed by the breakdown of the MTT dye at 540 nm. Half-maximal inhibitory concentrations (IC50) were determined based on the tested concentrations of the compounds. The tests were triplicated.[38] The MTT assay for cytotoxicity of compounds was determined according to previously published procedures.[39],[40]
(§4) The concentration that inhibits 50% of the cell population was calculated as IC50 using GraphPad Prism 9.0 statistical software program, and standard deviation values were analyzed. Data are expressed as mean ± SD. Comparisons were made using one-way ANOVA for continuous variables with normal distribution, and Tukey’s test was used for post hoc analysis of group differences. p < 0.05 was considered statistically significant.
(§5) The cell viability value of the control group was considered 100%, and all viability values were calculated using the formula below. The experiment was performed in 3 replicates. [drawing 2]

MMP-9 enzyme = molecular target: T1, MMP-9 enzyme (Homo sapiens, UniProt P14780); test: MMP-9 enzyme inhibition, colorimetric kit; format: biochemical; conditions: for inhibition at 100 µM: compounds at 100 μM
T1 construct: purchased Enzo Life Sciences Inc. (Farmingdale, NY, USA)
Procedure: Compounds (2a–2o) were tested to determine their MMP-9 enzyme inhibition potential. The compounds were tested at a concentration of 100 μM, and the standard molecule NNGH at a concentration of 1.3 μM.
MMP-9 inhibition was assessed using a colorimetric kit from Enzo Life Sciences Inc. (Farmingdale, NY, USA), following procedures similar to those described in previous studies.[25],[26] A thiopeptide was used as a chromogenic substrate (Ac-PLG-[2-mercapto-4-methyl-pentanoyl]-LG-OC2H5). 2-Nitro-5-thiobenzoic acid, formed by the reaction of the sulfhydryl group produced as a result of hydrolysis of the thioester by the MMP-9 enzyme and then reaction with DTNB [5,5′-dithiobis(2-nitrobenzoic acid), Ellman’s reagent], gives absorbance at 412 nm in a microplate reader (BioTek, PowerWave, Gen5 software, Winooski, VT, USA). Based on these absorptions, MMP-9 inhibition concentrations were determined. The assays were performed in triplicate. NNGH (N-isobutyl-N-(4-methoxyphenylsulfonyl)glycyl hydroxamic acid) was used as a control inhibitor. Data were shown as mean ± SD. The inhibitor % remaining activity of MMPs was calculated using the following equation:
Inhibitor% activity remaining = (V inhibitor/V control) × 100.
The inhibition (percent) of MMPs was calculated using the following equation: [drawing 1]

[4] = test system: L929 (mouse fibroblast cell line); test: MTT cytotoxicity assay on L929 healthy cells; format: cell-based; conditions: mean ± SD
Procedure: as §2, §3, §4, §5

T1 sequence (P14780 107-444 limits assumed): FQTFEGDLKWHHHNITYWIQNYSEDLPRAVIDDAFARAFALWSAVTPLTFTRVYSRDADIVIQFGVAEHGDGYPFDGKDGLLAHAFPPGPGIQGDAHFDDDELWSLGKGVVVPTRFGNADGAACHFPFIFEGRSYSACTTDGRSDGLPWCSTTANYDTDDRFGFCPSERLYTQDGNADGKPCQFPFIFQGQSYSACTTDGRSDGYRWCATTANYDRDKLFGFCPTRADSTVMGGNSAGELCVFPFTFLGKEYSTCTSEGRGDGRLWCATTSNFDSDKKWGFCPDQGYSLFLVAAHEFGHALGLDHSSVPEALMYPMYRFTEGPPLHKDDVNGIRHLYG

Row | SMILES | Q1-UL necrotic cells (A549 cells [1]) [%] | Q1-UR late apoptotic cells (A549 cells [1]) [%] | % Mitochondrial membrane depolarized cells (A549 cells [2]) [%] | % Mitochondrial membrane polarized cells (A549 cells [2]) [%] | % Caspase-3 negative cells (caspase-3 in A549 cells) [%] | % Caspase-3 positive cells (caspase-3 in A549 cells) [%] | IC50 [4] [µg/mL] | IC50 ([3]; A549 cells, MTT, mean ± SD) [µg/mL] | SI: selectivity index [3] | also measured
1 | N.N.[Cl][Pt][Cl] [Cisplatin, reference compound] | 6.56 | 31.29 | 36.27 | 62.15 | 75.56 | 11.65 | – | – | – | total apoptosis (early + late apoptotic cells) (A549 cells [1]): 62.37%; IC50 A549 ([3]; A549 cells, MTT, mean ± SD): 12.65 ± 0.38 µg/mL
2 | COc1ccc(OC)c(-c2csc(NN=Cc3ccccn3)n2)c1 [Compound 2a, 4-(2,5-Dimethoxyphenyl)-2-[2-(pyridin-2 ylmethylene)hydrazinyl]thiazole] | – | – | – | – | – | – | 4.36 ± 0.32 (≈ 12.8 µM) | 7.3 ± 0.33 (≈ 21.4 µM) | 0.60 | MMP-9 inhibition, result in words (MMP-9 enzyme; compared with 2f): less active than 2f (2,5-dimethoxypehnyl) or inactive
3 | CS(=O)(=O)c1ccc(-c2csc(NN=Cc3ccccn3)n2)cc1 [Compound 2b, 4-(4-(Methylsulfonyl)phenyl)-2-(2-(pyridin-2-ylmethylene)hydrazinyl)thiazole] | 0.33 | 2.28 | 47.96 | 54.51 | 84.70 | 7.73 | 31.2 ± 0.56 (≈ 87.2 µM) | 9.93 ± 0.37 (≈ 27.7 µM) | – | Q1-LL viable cells (A549 cells [1]): 90.44%; Q1-LR early apoptotic cells (A549 cells [1]): 6.95%; apoptosis induction, result in words (A549 cells [1]): did not significantly induce apoptosis; mitochondrial membrane depolarization relative to cisplatin (A549 cells [2]; versus cisplatin): approximately 1.5 times
4 | Oc1ccc(-c2csc(NN=Cc3ccccn3)n2)cc1O [Compound 2d, 4-(2-(2-(Pyridin-2-ylmethylene)hydrazinyl)thiazol-4-yl)benzene-1,2-diol] | – | – | – | – | – | – | 9.2 ± 0.36 (≈ 29.5 µM) | 4.7 ± 0.6 (≈ 15 µM) | 1.96 | –
5 | Clc1ccc(-c2csc(NN=Cc3ccccn3)n2)cc1Cl [Compound 2e, 4-(3,4-Dichlorophenyl)-2-(2-(pyridin-2-ylmethylene)hydrazinyl)thiazole] | – | – | – | – | – | – | 4.87 ± 0.3 (≈ 13.9 µM) | 4.56 ± 0.31 (≈ 13.1 µM) | 1.07 | inhibition at 100 µM (MMP-9 enzyme; mean ± SD): 30.3 ± 2.64%
6 | COc1ccc(OC)c(-c2csc(NN=Cc3cccnc3)n2)c1 [Compound 2f, 4-(2,5-Dimethoxyphenyl)-2-(2-(pyridin-3-ylmethylene)hydrazinyl)thiazole] | – | – | – | – | – | – | 14 ± 0.57 (≈ 41 µM) | 4.04 ± 0.29 (≈ 11.9 µM) | – | inhibition at 100 µM (MMP-9 enzyme; mean ± SD): 70.8 ± 2.2%
7 | C(=NNc1nc(-c2ccc(-c3ccccc3)cc2)cs1)c1cccnc1 [Compound 2h, 4-([1,1’-Biphenyl]-4-yl)-2-(2-(pyridin-3-ylmethylene)hydrazinyl)thiazole] | – | – | – | – | – | – | 15.2 ± 0.53 (≈ 42.7 µM) | 9.93 ± 0.42 (≈ 27.9 µM) | 1.53 | –
8 | Oc1ccc(-c2csc(NN=Cc3cccnc3)n2)cc1O [Compound 2i, 4-(2-(2-(Pyridin-3-ylmethylene)hydrazinyl)thiazol-4-yl)benzene-1,2-diol] | – | – | – | – | – | – | > 250 | 7.2 ± 0.95 (≈ 23.1 µM) | – | inhibition at 100 µM (MMP-9 enzyme; mean ± SD): 40.6 ± 3.01%
9 | Clc1ccc(-c2csc(NN=Cc3cccnc3)n2)cc1Cl [Compound 2j, 4-(3,4-Dichlorophenyl)-2-(2-(pyridin-3-ylmethylene)hydrazinyl)thiazole] | 1.68 | 3.31 | 15.40 | 84.75 | 97.47 | 0.96 | 9.76 ± 0.45 (≈ 27.9 µM) | 6.58 ± 0.35 (≈ 18.8 µM) | 1.48 | Q1-LL viable cells (A549 cells [1]): 91.05%; Q1-LR early apoptotic cells (A549 cells [1]): 3.96%; apoptosis induction, result in words (A549 cells [1]): did not significantly induce apoptosis
10 | CS(=O)(=O)c1ccc(-c2csc(NN=Cc3ccncc3)n2)cc1 [Compound 2l, 4-(4-(Methylsulfonyl)phenyl)-2-(2-(pyridin-4-ylmethylene)hydrazinyl)thiazole] | – | – | – | – | – | – | 6.74 ± 0.41 (≈ 18.8 µM) | 4.7 ± 0.3 (≈ 13.1 µM) | 1.43 | –
11 | Clc1ccc(-c2csc(NN=Cc3ccncc3)n2)cc1Cl [Compound 2o, 4-(3,4-Dichlorophenyl)-2-(2-(pyridin-4-ylmethylene)hydrazinyl)thiazole] | 3.10 | 7.92 | 12.85 | 87.73 | 25.00 | 0.00 | 51.9 ± 0.58 (≈ 149 µM) | 5.04 ± 0.31 (≈ 14.4 µM) | – | Q1-LL viable cells (A549 cells [1]): 87.11%; Q1-LR early apoptotic cells (A549 cells [1]): 1.87%
12 | COc1ccc(S(=O)(=O)N(CC(=O)NO)CC(C)C)cc1 [NNGH, N-isobutyl-N-(4-methoxyphenylsulfonyl)glycyl hydroxamic acid, reference compound] | – | – | – | – | – | – | – | – | – | MMP-9 inhibition % (MMP-9 enzyme; standard at 1.3 μM, mean ± SD): 93.56 ± 1.78%
